Test results from ChEMBL document CHEMBL4680267, “Design, synthesis and biological evaluation of 7-substituted 4-phenyl-6H-imidazo[1,5-a]thieno[3,2-f] [1,4]diazepines as safe anxiolytic agents” (Eur J Med Chem, 2020).

Tests used:
[1] = Effect on motor coordination in mouse assessed as number of falls from rotarod at 30 mg/kg, po measured for 30 mins by rotarod test (reference value: 2.2 +/- 0.2); assay type: ADME, organism-based; details: in vivo, 0.5 h
[2] = Effect on locomotor activity in mouse at 30 mg/kg, po measured after 30 mins by hole-board test; assay type: ADME, organism-based; details: in vivo, 0.5 h
[3] = Effect on explorative activity in mouse assessed as exploration of holes at 30 mg/kg, po measured after 30 mins by hole-board test; assay type: ADME, organism-based; details: in vivo, 0.5 h
Mus musculus [4] = assay: Anxiolytic activity in mouse assessed as increase in time spent in lighted compartment at 10 mg/kg, po measured after 30 mins by light-dark box test (reference value: 122.3 +/- 8.5 secs); assay type: functional; details: 0.5 h
Mus musculus [5] = assay: Anti-amnesic activity in mouse model of scopolamine-induced cognitive deficit assessed as latency time to enter dark compartment in training session at 30 mg/kg, po and measured for 30 mins by passive avoidance test (reference value: 14.2 +/- 2.2 secs); assay type: functional; details: 0.5 h
Mus musculus [6] = assay: Anti-amnesic activity in mouse model of scopolamine-induced cognitive deficit assessed as latency time to enter dark compartment in training session at 10 mg/kg, po and mesured for 30 mins by passive avoidance test (reference value: 14.2 +/- 2.2 secs); assay type: functional; details: 0.5 h
Mus musculus [7] = assay: Anti-amnesic activity in mouse model of scopolamine-induced cognitive deficit assessed as latency time to enter dark compartment in retension session at 30 mg/kg, po and measured after 24 hrs by passive avoidance test (reference value: 46.2 +/- 8.9 secs); assay type: functional
[8] = Displacement of [3H]-Flumazenil from Central type benzodiazepine receptor in rat cerebral cortex membrane incubated for 90 mins by liquid scintillation counting method; assay type: cell membranes
Mus musculus [9] = assay: Anticonvulsive activity in mouse assessed as protection against pentylenetetrazole-induced seizure at 30 mg/kg, po administered 30 mins prior to pentylenetetrazole challenge and measured for 30 mins; assay type: functional; details: time 60 min, 1 h
Rattus norvegicus = species on record: Rattus norvegicus; assay: Displacement of [3H]-Flumazenil from Central type benzodiazepine receptor in rat cerebral cortex membrane at 10 uM incubated for 90 mins by liquid scintillation counting method relative to control; assay type: cell membranes
[10] = Hypnotic activity in mouse assessed as phenobarbital induced sleep induction time at 30 mg/kg, po administered 30 mins prior to phenobarbital challenge and measured for 30 mins (reference value: 4.4 +/- 1.1 min); assay type: ADME, organism-based; details: in vivo, 1 h, time 60 min
[11] = Hypnotic activity in mouse assessed as phenobarbital induced sleep endurance time at 30 mg/kg, po administered 30 mins prior to phenobarbital challenge and measured for 30 mins (reference value: 27.4 +/- 2.3 min); assay type: ADME, organism-based; details: in vivo, 1 h, time 60 min
Mus musculus [12] = assay: Anxiolytic activity in mouse assessed as increase in time spent in lighted compartment at 30 mg/kg, po measured after 30 mins by light-dark box test (reference value: 122.3 +/- 8.5 secs); assay type: functional; details: 0.5 h
Mus musculus [13] = assay: Anti-amnesic activity in mouse model of scopolamine-induced cognitive deficit assessed as latency time to enter dark compartment in retension session at 10 mg/kg, po and measured after 24 hrs by passive avoidance test (reference value: 46.2 +/- 8.9 secs); assay type: functional
[14] = Displacement of [3H]diazepam from Benzodiazepine receptor in rat cerebral cortex membrane; assay type: cell membranes
Mus musculus [15] = assay: Anticonvulsive activity in mouse assessed as protection against pentylenetetrazole-induced seizure at 10 mg/kg, po administered 30 mins prior to pentylenetetrazole challenge and measured for 30 mins; assay type: functional; details: time 60 min, 1 h
[16] = Hypnotic activity in mouse assessed as phenobarbital induced sleep endurance time at 2 mg/kg, sc administered 30 mins prior to phenobarbital challenge and measured for 30 mins (reference value: 27.4 +/- 2.3 min); assay type: ADME, organism-based; details: in vivo, 1 h, time 60 min
[17] = Displacement of [3H]flunitrazepam from Benzodiazepine receptor in Sprague-Dawley rat cerebral cortex membrane measured after 30 mins by liquid scintillation spectrometry analysis; assay type: cell membranes
[18] = Displacement of [3H]flunitrazepam from Benzodiazepine receptor in Sprague-Dawley rat cerebral cortex membrane preincubated for 10 mins followed by [3H]flunitrazepam addition and measured after 60 mins by liquid scintillation spectroscopy analysis; assay type: cell membranes

Structure (SMILES)	Activity [1]	Activity [2]	Activity [3]	Time (Mus musculus [4]) [min]	Time (Mus musculus [5]) [s]	Time (Mus musculus [6]) [s]	Time (Mus musculus [7]) [s]	IC50 [8] [nM]	Activity (Mus musculus [9]) [%]	inhibition (Rattus norvegicus) [%]	Time [10] [min]	Time [11] [min]	Time (Mus musculus [12]) [s]	Time (Mus musculus [13]) [s]	IC50 [14] [nM]	Activity (Mus musculus [15]) [%]	Time [16] [min]	IC50 [17] [nM]	IC50 [18] [nM]
CCOC(=O)c1ncn2c1CN=C(c1ccc(F)cc1)c1ccsc1-2	2.2	34.5	15.8	109.8	14.7	13.9	89.2	16.2	0	> 80	5.5	29.2	151.2	55.8					
CCOC(=O)c1ncn2c1CN(C)C(=O)c1cc(F)ccc1-2 [FLUMAZENIL]															2.3				
CN1C(=O)CN=C(c2ccccc2)c2cc(Cl)ccc21 [DIAZEPAM]				165.6				18.5								100			
CC(N)Cc1ccccc1 (configuration not stated) [AMPHETAMINE]																	22.2		
CC(C)(C)OC(=O)c1ncn2c1CN=C(c1ccccc1)c1ccsc1-2	2.4	33.4	15.9	113.6	17.2	15.4	70.3	5.19	20	> 80	4.4	28.8	151.4	46.9					
CC(C)(C)OC(=O)c1ncn2c1CN=C(c1ccc(F)cc1)c1ccsc1-2	2.1	26.7	17.5	145.6	16.5	12.8	85.9	10.2	40	> 80	4.7	27.2	169.4	67.1		20			
CC(C)(C)OC(=O)c1ncn2c1CN=C(c1cccc(F)c1)c1ccsc1-2	1.9	29.5	17.5	118.3	15.6	18.2	72.5	9.61	0	> 80	3.5	25.9	143.8	51.4					
Cc1nnc2n1-c1sc(Br)cc1C(c1ccccc1Cl)=NC2 [BROTIZOLAM]																		2.6	
CCc1cc2c(s1)-n1c(C)nnc1CN=C2c1ccccc1Cl [ETIZOLAM]																			4.5
CCOC(=O)c1ncn2c1CN=C(c1ccccc1)c1ccsc1-2	1.9	28.2	19.1	131.3	18.1	13.6	88.6	11.7	10	> 80	3.9	23.8	166.2	54.1					
CCOC(=O)c1ncn2c1CN=C(c1cccc(F)c1)c1ccsc1-2	2.5	27.3	15.3	111.3	17.4	14.9	75.3	8.66	20	> 80	5.2	24.9	163.9	39.2					
